A short description of data set [1]: in vivo. The conditions noted are these: male, Sprague Dawley, rat, iv.
Procedure: (§1) The purpose of this Example is to investigate half-life in vivo in rat.
(§2) In vivo pharmacokinetic studies in rats were performed with the GLP-1 derivatives of a number of the Example compounds, as described in the following.
(§3) Male Sprague Dawley rats of same age with a body weight of approximately 400 g were obtained from Taconic (Denmark) and assigned to the treatments by simple randomisation on body weight, approximately 4 rats per group.
(§4) The GLP-1 derivatives (approximately 6 nmol/ml) were dissolved in 50 mM sodium phosphate, 145 mM sodium chloride, 0.05% tween 80, pH 7.4. Intravenous injections (1.0 ml/kg) of the compounds were given with a syringe in the tail vein of conscious rats. Blood was sampled from vena sublingualis for 5 days post dosing. Blood samples (200 μl) were collected in EDTA buffer (8 mM) and then centrifuged at 4° C. and 10000 G for 5 minutes. Plasma samples were kept at −20° C. until analyzed for plasma concentration of the respective GLP-1 compound.
(§5) The donor beads were coated with streptavidin, while acceptor beads were conjugated with a monoclonal antibody recognising a mid-/C-terminal epitope of the peptide. Another monoclonal antibody, specific for the N-terminus, was biotinylated. The three reactants were combined with the analyte and formed a two-sited immuno-complex. Illumination of the complex released singlet oxygen atoms from the donor beads, which were channeled into the acceptor beads and triggered chemiluminescence which was measured in an Envision plate reader. The amount of light was proportional to the concentration of the compound.
(§6) Plasma concentration-time profiles were analyzed using Phoenix WinNonLin ver. 6.2, Pharsight Inc., Mountain View, Calif., USA), and the half-life (T1/2) calculated using individual plasma concentration-time profiles from each animal.
A short description of data set [2]: in vivo. The conditions noted are these: male, Göttingen, minipig, iv.
Procedure: (§7) The purpose of this study is to determine the protraction in vivo of the GLP-1 derivatives after i.v. administration to minipigs, i.e. the prolongation of their time of action. This is done in a pharmacokinetic (PK) study, where the terminal half-life of the derivative in question is determined. By terminal half-life is generally meant the period of time it takes to halve a certain plasma concentration, measured after the initial distribution phase.
(§8) Study A: Male Göttingen minipigs were obtained from Ellegaard Göttingen Minipigs (Dalmose, Denmark) approximately 7-14 months of age and weighing from approximately 16-35 kg were used in the studies. The minipigs were housed individually and fed restrictedly once or twice daily with SDS minipig diet (Special Diets Services, Essex, UK). After at least 2 weeks of acclimatisation two permanent central venous catheters were implanted in vena cava caudalis or cranialis in each animal. The animals were allowed 1 week recovery after the surgery, and were then used for repeated pharmacokinetic studies with a suitable wash-out period between successive GLP-1 derivative dosings.
(§9) The animals were fasted for approximately 18 h before dosing and from 0 to 4 h after dosing, but had ad libitum access to water during the whole period.
(§10) The GLP-1 derivatives were dissolved in 50 mM sodium phosphate, 145 mM sodium chloride, 0.05% tween 80, pH 7.4 to a concentration of usually from 20-60 nmol/ml. […] Blood samples (for example 0.8 ml) were collected in EDTA buffer (8 mM) and then centrifuged at 4° C. and 1942 G for 10 minutes.
(§11) Study B: Male Göttingen minipigs were obtained from Ellegaard Göttingen Minipigs (Dalmose, Denmark) approximately 5 months of age and weighing from approximately 9 kg were used in the studies. The minipigs were housed in pens with straw as bedding, six together in each pen and fed restrictedly once or twice daily with Altromin 9023 minipig diet (Chr. Petersen A/S, DK-4100 Ringsted) or Standard SMP(E) minipig diet (Special Diet Services (SDS), UK). The pigs were used for repeated pharmacokinetic studies with a suitable wash-out period between successive GLP-1 derivative dosings.
(§12) The GLP-1 derivatives were dissolved in 50 mM sodium phosphate, 145 mM sodium chloride, 0.05% tween 80, pH 7.4 to a concentration of usually from 20-60 nmol/ml. Intravenous injections (the volume corresponding to usually 2 nmol/kg, for example 0.1 ml/kg) of the compounds were given as intravenous injections via a Venflon inserted in an ear vein, while they are placed unanaesthetised in a sling. The dose volume was 0.1 ml/kg, and blood was sampled at predefined time points for up till 17 days post dosing (samples was taken with syringe from a jugular vein).
(§13) Individual plasma concentration-time profiles were analyzed by a non-compartmental model in Phoenix WinNonLin ver. […] (Pharsight Inc., Mountain View, Calif., USA), and the resulting terminal half-lives (harmonic mean) determined.
In a further data set the target is T1, human GLP-1 receptor (Homo sapiens, UniProt P43220).
T1 construct: expressed in transfected cells; host or cells: BHK cells, clone FCW467-12A/KZ10-1 (parent line BHKTS13), further transfected with CRE luciferase
The experiment in a line: In vitro potency (AlphaScreen cAMP, membranes). Type of data set: biochemical. The procedure, abridged:
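Plasma membranes (6 μg/well) from BHK467-12A cells stably expressing human GLP-1 receptor stimulated with peptide in pH 7.4 Tris/HEPES buffer with 0.1% BSA, 0.5 mM IBMX, 1 mM ATP, 1 μM GTP. cAMP detected by AlphaScreen competition with biotin-cAMP after 3 h at RT, against cAMP standard.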
For orientation: Bead proximity is the source of the signal in Alpha formats.

Data set [3] in a line: Pharmacokinetic (PK) study in rat. The conditions noted are these: male, Sprague Dawley, in vivo, iv, 6 nmol/kg.
Procedure: as §1, §2, §3, §4, §5, §6
The nature of data set [4]: Pharmacokinetic (PK) study in minipig. The conditions noted are these: male, Göttingen, in vivo, iv.
Procedure: as §7, §8, §9, §10, §11, §12, §13
Data set [5] concerns Landrace Yorkshire Duroc (LYD) pigs. Nature of the data set: Pharmacodynamic (PD) study in pigs, food intake. Type of data set: in vivo, pig. The conditions noted are these: single s.c. dose 3.0 nmol/kg; for PD in pig, food intake (% of vehicle) for hours 0-24: 0-24 h; for PD in pig, food intake (% of vehicle) for hours 24-48: 24-48 h. The protocol:
The purpose of this experiment was to investigate the effect of a couple of Example compounds on food intake in pigs. This was done in a pharmacodynamic (PD) study as described below, in which food intake was measured from 1 to 4 days after administration of a single dose of the GLP-1 derivative, as compared to a vehicle-treated control group.
Female Landrace Yorkshire Duroc (LYD) pigs, approximately 3 months of age, weighing approximately 30-35 kg were used (n=3-4 per group). The animals were housed in a group for approximately 1 week during acclimatisation to the animal facilities. During the experimental period the animals were placed in individual pens at least 2 days before dosing and during the entire experiment for measurement of individual food intake. The animals were fed ad libitum with pig fodder (Svinefoder Danish Top) at all times both during the acclimatisation and the experimental period. Food intake was monitored on line by logging the weight of fodder every 15 minutes. The system used was Mpigwin (Ellegaard Systems, Faaborg, Denmark).
The phosphate buffer serves as vehicle. Animals are dosed with a single subcutaneous dose of the GLP-1 derivative or vehicle (dose volume 0.025 ml/kg) on the morning of day 1, and food intake is measured for 1 day after dosing. On the last day of each study, 1-4 days after dosing, a blood sample for measurement of plasma exposure of the GLP-1 derivative is taken from the heart in anaesthetised animals. The animals are thereafter euthanised with an intra-cardial overdose of pentobarbitone.
Food intake is calculated as mean±SEM food intake in 24 h intervals (0-24 h, 24-48 h, and 48-72 h). In Table 6 below the food intake is indicated as percentage of the food intake of the vehicle group in the same time interval (dosage 3.0 nmol/kg).
Statistical comparisons of the food intake in the 24 h intervals in the vehicle vs. GLP-1 derivative group are done using two-way-ANOVA repeated measures, followed by Bonferroni post-test.

Where [6] appears, read: cAMP formation in membranes from BHK467-12A cells expressing human GLP-1 receptor, read-out: In vitro potency (AlphaScreen) EC50.

Structures are written as SMILES. Read-outs that look alike come from different tables or passages of the source.

T1 sequence (P43220 24-463): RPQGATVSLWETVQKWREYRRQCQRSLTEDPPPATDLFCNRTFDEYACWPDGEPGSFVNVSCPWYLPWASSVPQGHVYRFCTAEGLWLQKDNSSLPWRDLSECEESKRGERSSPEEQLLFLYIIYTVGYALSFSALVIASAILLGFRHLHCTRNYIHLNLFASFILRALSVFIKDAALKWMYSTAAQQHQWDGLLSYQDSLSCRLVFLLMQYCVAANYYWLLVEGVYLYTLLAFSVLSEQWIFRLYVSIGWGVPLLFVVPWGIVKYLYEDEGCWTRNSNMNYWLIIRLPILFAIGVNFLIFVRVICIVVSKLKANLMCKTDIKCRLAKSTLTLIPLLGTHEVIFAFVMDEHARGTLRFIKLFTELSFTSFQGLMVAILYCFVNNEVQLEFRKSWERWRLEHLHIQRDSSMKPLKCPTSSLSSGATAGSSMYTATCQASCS

As a reminder, the half-life is the time needed for the level to fall by half in the phase considered. Low values mean rapid decline, high ones slow decline. In general, EC50 refers to the concentration that produces a half-maximal response. As to `CC[C@H](C)[C@H](NC(=O)[C@H](Cc1ccccc1)NC(=O)[C@H](CCC(=O)O)NC(=O)[C@H](CCCCNC(=O)[C@@H](N)CCCCNC(=O)[C@@H](N)CCCCNC(=O)CC[C@H](NC(=O)CC[C@H](NC(=O)CCCCCCCCCCCCCCC(=O)O)C(=O)O)C(=O)O)NC(=O)[C@H](C)NC(=O)[C@H](C)NC(=O)[C@H](CCC(N)=O)NC(=O)CNC(=O)[C@H](CCC(=O)O)NC(=O)[C@H](CC(C)C)NC(=O)[C@H](Cc1ccc(O)cc1)NC(=O)[C@H](CO)NC(=O)[C@H](CO)NC(=O)[C@@H](NC(=O)[C@H](CC(=O)O)NC(=O)[C@H](CO)NC(=O)[C@@H](NC(=O)[C@H](Cc1ccccc1)NC(=O)[C@@H](NC(=O)CNC(=O)[C@H](CCC(=O)O)NC(=O)C(C)(C)NC(=O)[C@@H](N)Cc1c[nH]cn1)[C@@H](C)O)[C@@H](C)O)C(C)C)C(=O)N[C@@H](C)C(=O)N[C@@H](Cc1c[nH]c2ccccc12)C(=O)N[C@@H](CC(C)C)C(=O)N[C@H](C(=O)N[C@@H](CCCNC(=N)N)C(=O)NCC(=O)N[C@@H](CCCNC(=N)N)C(=O)N[C@@H](CCCCNC(=O)[C@@H](N)CCCCNC(=O)[C@@H](N)CCCCNC(=O)CC[C@H](NC(=O)CC[C@H](NC(=O)CCCCCCCCCCCCCCC(=O)O)C(=O)O)C(=O)O)C(=O)O)C(C)C` [Example 12, N^ε26-[(2S)-2-amino-6-[[(2S)-2-amino-6-[[(4S)-4-carboxy-4-[[(4S)-4-carboxy-4-(15-carboxypentadecanoylamino)butanoyl]amino]butanoyl]amino]hexanoyl]amino]hexanoyl], N^ε37-[(2S)-2-amino-6-[[(2S)-2-amino-6-[[(4S)-4-carboxy-4-[[(4S)-4-carboxy-4-(15-carboxypentadecanoylamino)butanoyl]amino]butanoyl]amino]hexanoyl]amino]hexanoyl]-[Aib^8,Arg^34, Lys^37]-GLP-1-(7-37)-peptide], the results for the half-life in the data set “in vivo [1]” and in the data set “in vivo [2]” were 28 h and 109 h, respectively. At human GLP-1 receptor (setting [6]), the EC50 worked out at 0.227 nM.
In turn, `CC[C@H](C)[C@H](NC(=O)[C@H](Cc1ccccc1)NC(=O)[C@H](CCC(=O)O)NC(=O)[C@H](CCCCNC(=O)[C@@H](N)CCCCNC(=O)[C@@H](N)CCCCNC(=O)CC[C@H](NC(=O)CC[C@H](NC(=O)CCCCCCCCCCCOc1ccc(C(=O)O)cc1)C(=O)O)C(=O)O)NC(=O)[C@H](C)NC(=O)[C@H](C)NC(=O)[C@H](CCC(N)=O)NC(=O)CNC(=O)[C@H](CCC(=O)O)NC(=O)[C@H](CC(C)C)NC(=O)[C@H](Cc1ccc(O)cc1)NC(=O)[C@H](CO)NC(=O)[C@H](CO)NC(=O)[C@@H](NC(=O)[C@H](CC(=O)O)NC(=O)[C@H](CO)NC(=O)[C@@H](NC(=O)[C@H](Cc1ccccc1)NC(=O)[C@@H](NC(=O)CNC(=O)[C@H](CCC(=O)O)NC(=O)C(C)(C)NC(=O)[C@@H](N)Cc1c[nH]cn1)[C@@H](C)O)[C@@H](C)O)C(C)C)C(=O)N[C@@H](C)C(=O)N[C@@H](Cc1c[nH]c2ccccc12)C(=O)N[C@@H](CC(C)C)C(=O)N[C@H](C(=O)N[C@@H](CCCNC(=N)N)C(=O)NCC(=O)N[C@@H](CCCNC(=N)N)C(=O)N[C@@H](CCCCNC(=O)[C@@H](N)CCCCNC(=O)[C@@H](N)CCCCNC(=O)CC[C@H](NC(=O)CC[C@H](NC(=O)CCCCCCCCCCCOc1ccc(C(=O)O)cc1)C(=O)O)C(=O)O)C(=O)O)C(C)C` [Example 16, N^ε26-[(2S)-2-amino-6-[[(2S)-2-amino-6-[[(4S)-4-carboxy-4-[[(4S)-4-carboxy-4-[12-(4-carboxyphenoxy)dodecanoylamino]butanoyl]amino]butanoyl]amino]hexanoyl]amino]hexanoyl], N^ε37-[(2S)-2-amino-6-[[(2S)-2-amino-6-[[(4S)-4-carboxy-4-[[(4S)-4-carboxy-4-[12-(4-carboxyphenoxy)dodecanoylamino]butanoyl]amino]butanoyl]amino]hexanoyl]amino]hexanoyl]-[Aib^8,Arg^34,Lys^37]-GLP-1-(7-37)-peptide] showed a half-life in data set [3] of 17 h. The half-life in data set [4] was 64 h. The compound also returned an EC50 on human GLP-1 receptor of 0.154 nM. In data set [5], the “PD in pig, food intake (% of vehicle) for hours 0-24” value was 33 % of vehicle and the “PD in pig, food intake (% of vehicle) for hours 24-48” value is reported as 43 % of vehicle.
`CC[C@H](C)[C@H](NC(=O)[C@H](Cc1ccccc1)NC(=O)[C@H](CCC(=O)O)NC(=O)[C@H](CCCCNC(=O)[C@@H](N)CCCCNC(=O)[C@@H](N)CCCCNC(=O)CC[C@H](NC(=O)CCCCCCCNC(=O)CCCCCCCCCOc1ccc(C(=O)O)cc1)C(=O)O)NC(=O)[C@H](C)NC(=O)[C@H](C)NC(=O)[C@H](CCC(N)=O)NC(=O)CNC(=O)[C@H](CCC(=O)O)NC(=O)[C@H](CC(C)C)NC(=O)[C@H](Cc1ccc(O)cc1)NC(=O)[C@H](CO)NC(=O)[C@H](CO)NC(=O)[C@@H](NC(=O)[C@H](CC(=O)O)NC(=O)[C@H](CO)NC(=O)[C@@H](NC(=O)[C@H](Cc1ccccc1)NC(=O)[C@@H](NC(=O)CNC(=O)[C@H](CCC(=O)O)NC(=O)C(C)(C)NC(=O)[C@@H](N)Cc1c[nH]cn1)[C@@H](C)O)[C@@H](C)O)C(C)C)C(=O)N[C@@H](C)C(=O)N[C@@H](Cc1c[nH]c2ccccc12)C(=O)N[C@@H](CC(C)C)C(=O)N[C@H](C(=O)N[C@@H](CCCNC(=N)N)C(=O)NCC(=O)N[C@@H](CCCNC(=N)N)C(=O)N[C@@H](CCCCNC(=O)[C@@H](N)CCCCNC(=O)[C@@H](N)CCCCNC(=O)CC[C@H](NC(=O)CCCCCCCNC(=O)CCCCCCCCCOc1ccc(C(=O)O)cc1)C(=O)O)C(=O)O)C(C)C` [Example 26, N^ε26-[(2S)-2-amino-6-[[(2S)-2-amino-6-[[(4S)-4-carboxy-4-[8-[10-(4-carboxyphenoxy)decanoylamino]octanoylamino]butanoyl]amino]hexanoyl]amino]hexanoyl], N^ε37-[(2S)-2-amino-6-[[(2S)-2-amino-6-[[(4S)-4-carboxy-4-[8-[10-(4-carboxyphenoxy)decanoylamino]octanoylamino]butanoyl]amino]hexanoyl]amino]hexanoyl]-[Aib^8,Arg^34,Lys^37]-GLP-1-(7-37)-peptide] gave a half-life in data set [3] of 16 h. Also, in data set [4], the half-life is 13 h. At human GLP-1 receptor, the EC50 amounted to 0.135 nM. In data set [5], the “PD in pig, food intake (% of vehicle) for hours 0-24” value is on record as 10 % of vehicle and the “PD in pig, food intake (% of vehicle) for hours 24-48” value is listed as 26 % of vehicle. In addition, the “PD in pig, food intake (% of vehicle) for hours 48-72” value in data set [5] (48-72 h) is listed as 52 % of vehicle. Besides, the “reduction in food intake (in words)” value in data set [5] (versus vehicle) is “very nice reduction in food intake”.
With `CC[C@H](C)[C@H](NC(=O)[C@H](Cc1ccccc1)NC(=O)[C@H](CCC(=O)O)NC(=O)[C@H](CCCCNC(=O)[C@@H](N)CCCCNC(=O)[C@@H](N)CCCCNC(=O)CC[C@H](NC(=O)CCCCCCCCCCCCCCCCC(=O)O)C(=O)O)NC(=O)[C@H](C)NC(=O)[C@H](C)NC(=O)[C@H](CCC(N)=O)NC(=O)CNC(=O)[C@H](CCC(=O)O)NC(=O)[C@H](CC(C)C)NC(=O)[C@H](Cc1ccc(O)cc1)NC(=O)[C@H](CO)NC(=O)[C@H](CO)NC(=O)[C@@H](NC(=O)[C@H](CC(=O)O)NC(=O)[C@H](CO)NC(=O)[C@@H](NC(=O)[C@H](Cc1ccccc1)NC(=O)[C@@H](NC(=O)CNC(=O)[C@H](CCC(=O)O)NC(=O)C(C)(C)NC(=O)[C@@H](N)Cc1c[nH]cn1)[C@@H](C)O)[C@@H](C)O)C(C)C)C(=O)N[C@@H](C)C(=O)N[C@@H](Cc1c[nH]c2ccccc12)C(=O)N[C@@H](CC(C)C)C(=O)N[C@H](C(=O)N[C@@H](CCCNC(=N)N)C(=O)NCC(=O)N[C@@H](CCCNC(=N)N)C(=O)N[C@@H](CCCCNC(=O)[C@@H](N)CCCCNC(=O)[C@@H](N)CCCCNC(=O)CC[C@H](NC(=O)CCCCCCCCCCCCCCCCC(=O)O)C(=O)O)C(=O)O)C(C)C` [Example 27, N^ε26-[(2S)-2-amino-6-[[(2S)-2-amino-6-[[(4S)-4-carboxy-4-(17-carboxyheptadecanoylamino)butanoyl]amino]hexanoyl]amino]hexanoyl], N^ε37-[(2S)-2-amino-6-[[(2S)-2-amino-6-[[(4S)-4-carboxy-4-(17-carboxyheptadecanoylamino)butanoyl]amino]hexanoyl]amino]hexanoyl]-[Aib^8,Arg^34,Lys^37]-GLP-1-(7-37)-peptide], in “in vivo [1]”, the half-life was 21 h. Also, the EC50 at human GLP-1 receptor (setting [6]) was 3.69 nM.

For the origin of these results see patent US10604554B2, “Double-acylated GLP-1 derivatives” (Novo Nordisk A/S, priority 2012, dated 2020).
